Measurements: patent US12590091B2, “1H-pyrrolo[3,2-C]pyridine and 1H-pyrrolo[2,3-C]pyridine derivatives as TLR9 inhibitors for the treatment of fibrosis” (BRISTOL-MYERS SQUIBB COMPANY, priority 2020, dated 2026)

Biological target: T1, human TLR9 (Homo sapiens, UniProt Q9NR96)
T1 construct: host or cells: HEK-Blue cells
T1 sequence (Q9NR96 26-1032): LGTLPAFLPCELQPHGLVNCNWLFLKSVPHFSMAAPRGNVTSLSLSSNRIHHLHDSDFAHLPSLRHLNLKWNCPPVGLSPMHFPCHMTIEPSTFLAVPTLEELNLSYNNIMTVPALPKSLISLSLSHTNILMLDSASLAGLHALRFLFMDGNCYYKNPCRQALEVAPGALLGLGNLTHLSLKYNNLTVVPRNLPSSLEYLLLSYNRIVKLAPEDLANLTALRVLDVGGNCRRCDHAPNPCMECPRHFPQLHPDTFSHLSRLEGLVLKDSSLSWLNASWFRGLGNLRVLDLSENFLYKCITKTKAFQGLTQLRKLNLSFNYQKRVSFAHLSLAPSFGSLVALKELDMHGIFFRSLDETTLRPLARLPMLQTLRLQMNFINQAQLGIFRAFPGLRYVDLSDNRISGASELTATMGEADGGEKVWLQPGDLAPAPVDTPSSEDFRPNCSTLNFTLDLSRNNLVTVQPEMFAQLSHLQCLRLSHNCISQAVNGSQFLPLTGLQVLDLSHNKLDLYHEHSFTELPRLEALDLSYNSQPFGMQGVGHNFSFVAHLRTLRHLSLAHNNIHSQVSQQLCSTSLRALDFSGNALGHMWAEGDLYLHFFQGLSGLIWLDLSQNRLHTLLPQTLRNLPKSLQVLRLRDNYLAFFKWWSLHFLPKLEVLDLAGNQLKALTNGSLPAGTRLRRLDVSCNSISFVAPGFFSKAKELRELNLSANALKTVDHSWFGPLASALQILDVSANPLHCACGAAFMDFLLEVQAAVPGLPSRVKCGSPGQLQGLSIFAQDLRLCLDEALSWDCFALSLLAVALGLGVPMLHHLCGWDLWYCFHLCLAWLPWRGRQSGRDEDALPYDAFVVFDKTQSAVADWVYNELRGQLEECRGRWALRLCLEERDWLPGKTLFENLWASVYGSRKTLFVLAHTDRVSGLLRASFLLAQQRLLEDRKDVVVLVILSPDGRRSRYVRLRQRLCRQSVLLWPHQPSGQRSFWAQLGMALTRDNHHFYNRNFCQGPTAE
Assay: TLR9 inhibition reporter assay (HEK-Blue cells, SEAP reporter)
Assay type: cell-based
Settings: HEK-Blue cells overexpressing human TLR9, stimulated with ODN2006 5 nM, 22 hour incubation
Protocol: TLR7/8/9 Inhibition Reporter Assays
HEK-Blue™-cells (Invivogen) overexpressing human TLR7, TLR8 or TLR9 receptors were used for screening inhibitors of these receptors using an inducible SEAP (secreted embryonic alkaline phosphatase) reporter gene under the control of the IFN-β minimal promoter fused to five NF-κB and AP-1-binding sites. Briefly, cells are seeded into Greiner 384 well plates (15000 cells per well for TLR7, 20,000 for TLR8 and 25,000 for TLR9) and then treated with test compounds in DMSO to yield a final dose response concentration range of 0.05 nM-50 μM. […] After a 22 hour incubation at 37° C., 5% CO2, SEAP levels are determined with the addition of HEK-Blue™ Detection reagent (Invivogen), a cell culture medium that allows for detection of SEAP, according to manufacturer's specifications. The percent inhibition is determined as the % reduction in the HEK-Blue signal present in wells treated with agonist plus DMSO alone compared to wells treated with a known inhibitor.

| Compound | IC50 [µM] |
| --- | --- |
| Cc1nc(-c2ccc(N3CCOCC3)cc2)cc2c1cc(-c1ccc(S(C)(=O)=O)cc1)n2C [Example 86, 4-(4-(1,4-dimethyl-2-(4-(methylsulfonyl)phenyl)-1H-pyrrolo[3,2-c]pyridin-6-yl)phenyl)morpholine] | 1.07 |
| Cc1nc(-c2ccc(C3(O)CC4CCC(C3)N4C(C)C)cc2F)cc2c1cc(-c1ccc(S(C)(=O)=O)cc1)n2C [Example 103, (1R,3r,5S)-3-(4-(1,4-dimethyl-2-(4-(methylsulfonyl)phenyl)-1H-pyrrolo[3,2-c]pyridin-6-yl)-3-fluorophenyl)-8-isopropyl-8-azabicyclo[3.2.1]octan-3-ol] | 0.296 |
| Cc1nc(-c2ccc(N3CCN(CCc4ccc(I)cc4)CC3)cc2)cc2c1cc(-c1ccc(S(C)(=O)=O)cc1)n2C [Example 110, 6-(4-(4-(4-iodophenethyl)piperazin-1-yl)phenyl)-1,4-dimethyl-2-(4-(methylsulfonyl)phenyl)-1H-pyrrolo[3,2-c]pyridine] | 0.058 |
| Cc1nc(-c2ccc(N3CCN(CCc4ccc(Br)cc4)CC3)cc2)cc2c1cc(-c1ccc(S(C)(=O)=O)cc1)n2C [Example 111, 6-(4-(4-(4-bromophenethyl)piperazin-1-yl)phenyl)-1,4-dimethyl-2-(4-(methylsulfonyl)phenyl)-1H-pyrrolo[3,2-c]pyridine] | 0.113 |
| Cc1nc(-c2ccc(N3CCN(Cc4ccc(I)cc4)CC3)cc2)cc2c1cc(-c1ccc(S(C)(=O)=O)cc1)n2C [Example 112, 6-(4-(4-(4-iodobenzyl)piperazin-1-yl)phenyl)-1,4-dimethyl-2-(4-(methylsulfonyl)phenyl)-1H-pyrrolo[3,2-c]pyridine] | 0.087 |

The remaining lines, values ahead:

| IC50 [µM] | Compound |
| --- | --- |
| 0.153 | Cc1nc(-c2ccc(N3CCN(Cc4ccc(Br)cc4)CC3)cc2)cc2c1cc(-c1ccc(S(C)(=O)=O)cc1)n2C [Example 113, 6-(4-(4-(4-bromobenzyl)piperazin-1-yl)phenyl)-1,4-dimethyl-2-(4-(methylsulfonyl)phenyl)-1H-pyrrolo[3,2-c]pyridine] |
| 0.543 | COc1nc(-c2ccc(N3CCN(C(C)C)CC3)cc2)cc2c1cc(-c1ccc(S(C)(=O)=O)cc1)n2C [Example 119, 6-[4-(4-isopropylpiperazin-1-yl)phenyl]-4-methoxy-1-methyl-2-(4-methylsulfonylphenyl) pyrrolo[3,2-c]pyridine] |
| 1.26 | COc1nc(-c2ccc(CN3CCN(C(C)C)CC3)cc2)cc2c1cc(-c1ccc(S(C)(=O)=O)cc1)n2C [Example 126, 6-(4-((4-isopropylpiperazin-1-yl)methyl)phenyl)-4-methoxy-1-methyl-2-(4-(methylsulfonyl)phenyl)-1H-pyrrolo[3,2-c]pyridine] |
| 0.422 | CC(C)N1CCN(Cc2ccc(-c3cc4c(cc(-c5ccc(S(C)(=O)=O)cc5)n4C)c(N4CCOCC4)n3)cc2)CC1 [Example 127, 4-(6-(4-((4-isopropylpiperazin-1-yl)methyl)phenyl)-1-methyl-2-(4-(methylsulfonyl)phenyl)-1H-pyrrolo[3,2-c]pyridin-4-yl)morpholine] |
